{"source": "ChEMBL document CHEMBL5523759", "about": "“Discovery of Novel HDAC3 Inhibitors with PD-L1 Downregulating/Degrading and Antitumor Immune Effects” (J Med Chem, 2024)", "key": {"[1]": {"target": "T1, Histone deacetylase 3 (Mus musculus) (UniProt O88895)", "T1 sequence (whole entry)": "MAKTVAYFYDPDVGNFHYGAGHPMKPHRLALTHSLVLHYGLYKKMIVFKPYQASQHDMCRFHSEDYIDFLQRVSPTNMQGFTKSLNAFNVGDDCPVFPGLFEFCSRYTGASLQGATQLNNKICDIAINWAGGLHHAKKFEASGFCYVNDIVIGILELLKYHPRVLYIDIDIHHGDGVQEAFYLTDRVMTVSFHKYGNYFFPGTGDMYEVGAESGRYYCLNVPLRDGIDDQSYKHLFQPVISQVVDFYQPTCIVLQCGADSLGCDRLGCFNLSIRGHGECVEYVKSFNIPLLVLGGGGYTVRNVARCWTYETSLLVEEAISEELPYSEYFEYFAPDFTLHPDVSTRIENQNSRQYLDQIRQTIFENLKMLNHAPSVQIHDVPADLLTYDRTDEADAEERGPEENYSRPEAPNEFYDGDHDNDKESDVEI", "experiment": "Inhibition of HDAC3 in mouse B16-F10 cells assessed as upregulation of acetylated H3 level at 2 uM measured for 24 hrs by Western blot analysis", "type": "cell-based"}, "[2]": {"target": "T1, Histone deacetylase 3 (Mus musculus)", "experiment": "Inhibition of HDAC3 in mouse B16-F10 cells assessed as upregulation of acetylated H3 level at 1 to 2 uM measured for 24 hrs by Western blot analysis", "type": "cell-based", "details": "dose 1-2 µM"}, "[3]": {"target": "T1, Histone deacetylase 3 (Mus musculus)", "experiment": "Inhibition of HDAC3 in mouse B16-F10 cells assessed as decrease in PD-L1 level measured for 24 hrs by Western blot analysis", "type": "cell-based", "details": "dose 1-2 µM"}, "[4]": {"target": "Programmed cell death 1 ligand 1 (Mus musculus) (UniProt Q9EP73)", "sequence (Q9EP73 whole entry)": "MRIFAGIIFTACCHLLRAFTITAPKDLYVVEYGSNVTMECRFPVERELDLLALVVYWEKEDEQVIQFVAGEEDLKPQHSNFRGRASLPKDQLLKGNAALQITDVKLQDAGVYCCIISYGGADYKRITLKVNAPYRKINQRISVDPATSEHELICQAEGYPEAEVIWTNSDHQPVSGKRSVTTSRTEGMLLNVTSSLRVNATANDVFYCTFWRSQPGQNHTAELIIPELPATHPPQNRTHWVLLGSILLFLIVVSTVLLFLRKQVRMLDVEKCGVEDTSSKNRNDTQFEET", "experiment": "Induction of PD-L1 degradation in mouse B16-F10 cells at 10 uM measured for 24 hrs by Western blot analysis relative to control", "type": "cell-based"}, "[5]": {"target": "Programmed cell death 1 ligand 1 (Mus musculus) (UniProt Q9EP73)", "experiment": "Induction of PD-L1 degradation in mouse B16-F10 cells 0.5 to 10 uM measured for 4 hrs in presence of MG132 by Western blot analysis", "type": "cell-based", "details": "dose 0.5-10 µM"}, "[6]": {"target": "Programmed cell death 1 ligand 1 (Mus musculus) (UniProt Q9EP73)", "experiment": "Induction of PD-L1 degradation in mouse B16-F10 cells assessed as upregulation of CTSB level at 1 to 4 uM measured for 4 hrs by Western blot analysis", "type": "cell-based", "details": "dose 1-4 µM"}, "[7]": {"target": "Programmed cell death 1 ligand 1 (Mus musculus) (UniProt Q9EP73)", "experiment": "Induction of PD-L1 degradation in mouse B16-F10 cells assessed as upregulation of CTSB level at 1 to 4 uM measured for 4 hrs in presence of CA-074 by Western blot analysis", "type": "cell-based", "details": "dose 1-4 µM"}, "[8]": {"experiment": "AUC (0 to t) in Sprague-Dawley rat at 20 mg/kg, po measured up to 12 hrs by LC-MS/MS analysis", "type": "ADME, organism-based", "details": "in vivo"}, "[9]": {"experiment": "AUC (0 to infinity) in Sprague-Dawley rat at 20 mg/kg, po measured up to 12 hrs by LC-MS/MS analysis", "type": "ADME, organism-based", "details": "in vivo"}, "[10]": {"experiment": "MRT (0 to infinity) in Sprague-Dawley rat at 20 mg/kg, po measured up to 12 hrs by LC-MS/MS analysis", "type": "ADME, organism-based", "details": "in vivo"}, "[11]": {"experiment": "Tmax in Sprague-Dawley rat at 20 mg/kg, po measured up to 12 hrs by LC-MS/MS analysis", "type": "ADME, organism-based", "details": "in vivo"}, "[12]": {"experiment": "Clearance in Sprague-Dawley rat at 20 mg/kg, po measured up to 12 hrs by LC-MS/MS analysis", "type": "ADME, organism-based", "details": "in vivo"}, "[13]": {"experiment": "Apparent volume of distribution in Sprague-Dawley rat at 2 mg/kg, iv measured up to 12 hrs by LC-MS/MS analysis", "type": "ADME, organism-based", "details": "in vivo, read-out: Vz"}, "[14]": {"experiment": "Apparent volume of distribution in Sprague-Dawley rat at 20 mg/kg, po measured up to 12 hrs by LC-MS/MS analysis", "type": "ADME, organism-based", "details": "in vivo"}, "[15]": {"experiment": "Cmax in Sprague-Dawley rat at 2 mg/kg, iv measured up to 12 hrs by LC-MS/MS analysis", "type": "ADME, organism-based", "details": "in vivo"}, "[16]": {"experiment": "Cmax in Sprague-Dawley rat at 20 mg/kg, po measured up to 12 hrs by LC-MS/MS analysis", "type": "ADME, organism-based", "details": "in vivo"}, "[17]": {"experiment": "Metabolic stability in mouse liver microsome assessed as parent compound remaining measured at 15 mins", "type": "ADME", "details": "liver microsomes, read-out: Stability"}, "[18]": {"experiment": "Metabolic stability in mouse liver microsome assessed as parent compound remaining measured at 30 mins", "type": "ADME", "details": "liver microsomes, read-out: Stability"}, "[19]": {"experiment": "Metabolic stability in rat liver microsome assessed as parent compound remaining measured at 5 mins", "type": "ADME", "details": "liver microsomes, read-out: Stability"}, "[20]": {"experiment": "Metabolic stability in mouse liver microsome assessed as half life", "type": "ADME", "details": "liver microsomes"}, "[21]": {"experiment": "Metabolic stability in rat liver microsome assessed as half life", "type": "ADME", "details": "liver microsomes"}, "[22]": {"experiment": "Metabolic stability in mouse liver microsome assessed as intrinsic clearance", "type": "ADME", "details": "liver microsomes, read-out: CLH"}, "[23]": {"experiment": "Metabolic stability in rat liver microsome assessed as intrinsic clearance", "type": "ADME", "details": "liver microsomes, read-out: CLH"}, "[24]": {"system": "B16-F10", "experiment": "Antitumor activity against mouse B16-F10 cells implanted in C57BL/6 mouse model assessed as reduction in tumor volume at 25 mg/kg, IG administered for 9 days", "type": "functional, organism-based", "details": "time 9.0 day"}, "[25]": {"system": "B16-F10", "experiment": "Antitumor activity against mouse B16-F10 cells implanted in C57BL/6 mouse model assessed as tumor growth inhibition at 25 mg/kg, IG administered for 9 days", "type": "functional", "details": "B16-F10, po, 216 h, time 9 day, read-out: TGI"}, "[26]": {"experiment": "Toxicity in C57BL/6 mouse implanted with mouse B16-F10 cells assessed as heart damage at 25 mg/kg, po administered for 9 days by H and E staining based analysis", "type": "organism-based", "details": "in vivo, 216 h, time 9 day"}, "[27]": {"experiment": "Toxicity in C57BL/6 mouse implanted with mouse B16-F10 cells assessed as liver damage at 25 mg/kg, po administered for 9 days by H and E staining based analysis", "type": "organism-based", "details": "in vivo, 216 h, time 9 day"}, "[28]": {"experiment": "Toxicity in C57BL/6 mouse implanted with mouse B16-F10 cells assessed as kidney damage at 25 mg/kg, po administered for 9 days by H and E staining based analysis", "type": "organism-based", "details": "in vivo, 216 h, time 9 day"}, "[29]": {"experiment": "Acute toxicity in C57BL/6J mouse assessed as survival rate at 500 mg/kg, po administered for 14 days", "type": "organism-based", "details": "in vivo, time 14 day"}, "[30]": {"system": "B16-F10", "experiment": "Antitumor activity against mouse B16-F10 cells implanted in C57BL/6 mouse model assessed as increase in Ac-H3 expression in tumor at 25 mg/kg, po administered for 9 days by Western blot analysis", "type": "functional, organism-based", "details": "time 9.0 day"}, "[31]": {"system": "B16-F10", "experiment": "Antitumor immunity against mouse B16-F10 cells implanted in C57BL/6 mouse model assessed as increase in CD3+ CD4+ T cells at 25 mg/kg, po administered for 9 days (reference value: 1.50%)", "type": "functional", "details": "time 9 day"}, "[32]": {"system": "B16-F10", "experiment": "Antitumor immunity against mouse B16-F10 cells implanted in C57BL/6 mouse model assessed as increase in CD3+ CD8+ T cells at 25 mg/kg, po administered for 9 days (reference value: 1.01%)", "type": "functional", "details": "time 9 day"}}, "note": "Activity calls are given as the source filed them. The rule behind the calls is not given here.", "data": [{"smiles": "Nc1ccccc1NC(=O)c1ccc(-c2ncc(CNc3ccccc3)s2)cc1", "values": [{"measurement": "inhibition", "setting": "[1]", "result": "Active"}]}, {"smiles": "CCCNNC(=O)c1ccc(CNC(=O)c2ncc(CNc3ccccc3)s2)cc1", "values": [{"measurement": "inhibition", "setting": "[2]", "result": "Active"}, {"measurement": "inhibition", "setting": "[3]", "result": "Dose-Dependent Effect"}, {"measurement": "Emax", "setting": "[4]", "result": 80, "unit": "%"}, {"measurement": "Activity", "setting": "[5]", "result": "Active"}, {"measurement": "Activity", "setting": "[6]", "result": "Active"}, {"measurement": "Activity", "setting": "[7]", "result": "Active"}, {"measurement": "AUC(0-t) at 12 h", "setting": "[8]", "result": 2740, "unit": "ng·h/mL"}, {"measurement": "AUC(0-inf)", "setting": "[9]", "result": 3030, "unit": "ng·h/mL"}, {"measurement": "MRT inf", "setting": "[10]", "result": 269, "unit": "min"}, {"measurement": "Tmax", "setting": "[11]", "result": 30, "unit": "min"}, {"measurement": "CL/F", "setting": "[12]", "result": 121, "unit": "mL/min/kg"}, {"measurement": "Vd", "setting": "[13]", "result": 2.21, "unit": "L/kg"}, {"measurement": "Vz", "setting": "[14]", "result": 34.45, "unit": "L/kg"}, {"measurement": "Cmax", "setting": "[15]", "result": 725, "unit": "ng/mL"}, {"measurement": "Cmax", "setting": "[16]", "result": 1040, "unit": "ng/mL"}, {"measurement": "remaining at 0.25 h", "setting": "[17]", "result": 31.6, "unit": "%"}, {"measurement": "remaining at 0.5 h", "setting": "[18]", "result": 11.3, "unit": "%"}, {"measurement": "remaining at 5 min", "setting": "[19]", "result": 79.9, "unit": "%"}, {"measurement": "half-life", "setting": "[20]", "result": 9.69, "unit": "min"}, {"measurement": "half-life", "setting": "[21]", "result": 23.7, "unit": "min"}, {"measurement": "CLint scaled", "setting": "[22]", "result": 563, "unit": "mL/min/kg"}, {"measurement": "CLint scaled", "setting": "[23]", "result": 107, "unit": "mL/min/kg"}, {"measurement": "Activity", "setting": "[24]", "result": "Active"}, {"measurement": "inhibition in vivo at 25 mg/kg", "setting": "[25]", "result": 37, "unit": "%"}, {"measurement": "Activity", "setting": "[26]", "result": "Non-Toxic"}, {"measurement": "Activity", "setting": "[27]", "result": "Non-Toxic"}, {"measurement": "Activity", "setting": "[28]", "result": "Non-Toxic"}, {"measurement": "survival at 336 h", "setting": "[29]", "result": 100, "unit": "%"}, {"measurement": "Activity", "setting": "[30]", "result": "Active"}, {"measurement": "Activity", "setting": "[31]", "result": 4.16, "unit": "%"}, {"measurement": "Activity", "setting": "[32]", "result": 3.7, "unit": "%"}]}]}
